Results as given in patent US9586969B2, “Microbiocidal heterobicyclic derivatives” (Syngenta Participations AG, priority 2014, dated 2017).

Tests used:
Fusarium culmorum = assay: microbe, parasite or virus in culture; assay type: cell-based; conditions: 72 h, read-out: disease control
[1] = test system: Botryotinia fuckeliana (Botrytis cinerea); assay: Botryotinia fuckeliana (Botrytis cinerea) / liquid culture (Gray mould); assay type: cell-based; conditions: 72 h, 200 ppm, liquid culture, 24° C., inhibition of growth determined photometrically 3-4 days after application, vs untreated control, read-out: disease control
[2] = test system: Glomerella lagenarium (Colletotrichum lagenarium); assay: Glomerella lagenarium (Colletotrichum lagenarium) / liquid culture (Anthracnose); assay type: cell-based; conditions: Colletotrichum orbiculare; 200 ppm; liquid culture, 24° C., inhibition of growth measured photometrically 3-4 days after application; vs untreated control; read-out: disease control
[3] = test system: Monographella nivalis (Microdochium nivale); assay: Monographella nivalis (Microdochium nivale) / liquid culture (Foot rot cereals); assay type: cell-based; conditions: 96 h, 200 ppm, liquid culture, 24° C., inhibition of growth determined photometrically 4-5 days after application, vs untreated control, read-out: disease control
Gaeumannomyces graminis = Gaeumannomyces graminis / liquid culture (Take-all of cereals); assay type: cell-based; conditions: 96 h, liquid culture, 24° C., inhibition of growth determined photometrically 4-5 days after application, vs untreated control, read-out: disease control
[4] = test system: Mycosphaerella graminicola (Septoria tritici); assay: Mycosphaerella graminicola (Septoria tritici) / liquid culture (Septoria blotch); assay type: cell-based; conditions: Zymoseptoria tritici, 96 h, liquid culture, 24° C., inhibition of growth determined photometrically 4-5 days after application, vs untreated control, read-out: disease control

SMILES | inhibition of growth at 200 ppm (Fusarium culmorum) [%] | inhibition of growth at 200 ppm [1] [%] | melting point [°C] | inhibition of growth at 200 ppm [2] [%] | inhibition of growth at 200 ppm [3] [%] | inhibition of growth at 200 ppm (Gaeumannomyces graminis) [%] | inhibition of growth at 200 ppm [4] [%]
CC1(C)Cc2c(F)cccc2C(c2cnn3c(C#N)ccc3c2)=N1 [E 30, 3-(5-fluoro-3,3-dimethyl-4H-isoquinolin-1-yl)pyrrolo[1,2-b]pyridazine-7-carbonitrile] | ≥ 80 | ≥ 80 | 118 to 136 | ≥ 80 | ≥ 80 | ≥ 80 | ≥ 80
CC1(C)N=C(c2cnn3c(C#N)cc(Br)c3c2)c2cccc(F)c2C1(F)F [E 64, 5-bromo-3-(4,4,5-trifluoro-3,3-dimethyl-1-isoquinolyl)pyrrolo[1,2-b]pyridazine-7-carbonitrile] |  |  | 190 to 192 |  |  |  | 
CC1(C)N=C(c2cnn3c(C#N)ccc3c2)c2cccc(F)c2C1(F)F [E 66, 3-(4,4,5-trifluoro-3,3-dimethyl-1-isoquinolyl)pyrrolo[1,2-b]pyridazine-7-carbonitrile] | ≥ 80 | ≥ 80 | 214 to 216 | ≥ 80 | ≥ 80 |  | 
